Results: patent US10624972B2, “Conjugates for treating diseases” (priority 2015, dated 2020)
Like-named read-outs stand apart in the source and are kept apart here. *1 amine or outer side, *2 acyl side, *3 side chain or, on linkers, in order; H or OH if unused. Where a SMILES comes first, the peptide text is derived from it. The star is where a group is joined. X1 = COc1ccc(C2=CN(C(=O)c3cc(OC)c(OC)cc3N)[C@H](C3OCCN3C(=O)OCCS*)C2)cc1; X2 = COc1cc(N)c(C(=O)N2c3ccccc3C[C@H]2C2OCCN2C(=O)OCc2ccc(S*)cc2)cc1OC; Pteroyl = Nc1nc2ncc(CNc3ccc(C(=O)*)cc3)nc2c(=O)[nH]1; γGlu = O=C(O)[C@H](CCC(=O)[*:2])N[*:1]

Key:
[1] = system: KB cells; assay: cells; type: cell-based, Human
Experimental: METHOD. Inhibition of Cellular DNA Synthesis. The conjugates described herein were evaluated using an in vitro cytotoxicity assay that predicted the ability of the drug to inhibit the growth of the corresponding targeted cells, such as, but not limited to the following
It is to be understood that the choice of cell type can be made on the basis of the susceptibility of those selected cells to the drug that forms the conjugate, and the relative expression of the cell surface receptor or target antigen. The test conjugates were conjugates of a cell surface receptor or target antigen binding compound and PBD prodrugs, poly-PBD prodrugs, and mixed PBDs, as described herein. The test cells were exposed to varying concentrations of the conjugates, and optionally also in the absence or presence of at least a 100-fold excess of the unconjugated cell surface receptor or target antigen binding compound for competition studies to assess activity as being specific to the cell surface receptor or target antigen.
EXAMPLE. Conjugates of PBD prodrugs, poly-PBD prodrugs, and mixed PBDs described herein were active against KB cells. The activity was mediated by the folate receptor as indicated by competition experiments using co-administered folic acid. KB cells were exposed for up to 7 h at 37° C. to the indicated concentrations of folate-drug conjugate in the absence or presence of at least a 100-fold excess of folic acid. The cells were then rinsed once with fresh culture medium and incubated in fresh culture medium for 72 hours at 37° C. Cell viability was assessed using a ^3H-thymidine incorporation assay. For conjugates described herein, dose-dependent cytotoxicity was generally measurable, and in most cases, the IC50 values (concentration of drug conjugate required to reduce ^3H-thymidine incorporation into newly synthesized DNA by 50%) were in the low nanomolar range.

[2] = Toxicity as measured by weight loss (test animal total body weight); type: in vivo, mice; settings: KB tumor study
Experimental: METHOD. Toxicity as Measured by Weight Loss. The percentage weight change of the test animals was determined on selected days post-tumor inoculation (PTI), and during dosing. The results were graphed.

[3] = Homo sapiens, KB cells, 3H-thymidine incorporation, read-out: IC50 KB Cells
[4] = Homo sapiens, KB cells, co-administered with dithiothreitol (DTT), read-out: IC50 KB Cells

SMILES	IC50 ([1]; 3 h)	other results
C=C1C[C@@H](C2OCCN2C(=O)OCCSSc2ccccn2)N(C(=O)c2cc(OC)c(OCCCCCOc3cc(N)c(C(=O)N4CC(=C)C[C@H]4C4OCCN4C(=O)OCCSSc4ccccn4)cc3OC)cc2N)C1 (stereo partly shown) [EC1695]	–	IC50 [1, 3]: ≥ 100 nM; IC50 [1, 4]: 1 nM
COc1cc(N)c(C(=O)N2c3ccccc3C[C@H]2C2OCCN2C(=O)OCc2ccc(SSC[C@H](NC(=O)[C@H](CC(=O)O)NC(=O)[C@H](CC(=O)O)NC(=O)[C@H](CCCNC(=N)N)NC(=O)[C@H](CC(=O)O)NC(=O)CC[C@H](NC(=O)c3ccc(NCc4cnc5nc(N)[nH]c(=O)c5n4)cc3)C(=O)O)C(=O)O)cc2)cc1OC (stereo partly shown) [EC1673] ({Pteroyl-γGlu}-DRDDC(X2)-OH)	–	IC50 [1]: ≥ 1000 nM
C=C1C[C@@H](C2OCCN2C(=O)OCc2ccc(NC(=O)[C@H](C)NC(=O)[C@@H](NC(=O)CCOCCOCCOCCOCCNC(=O)CCN3C(=O)CC(SC[C@@H](NC(=O)[C@H](CCC(=O)NC[C@H](O)[C@@H](O)[C@H](O)[C@H](O)CO)NC(=O)[C@@H](CCC(=O)O)NC(=O)[C@H](CCC(=O)NC[C@H](O)[C@@H](O)[C@H](O)[C@H](O)CO)NC(=O)[C@@H](CCC(=O)O)NC(=O)[C@H](CCC(=O)NC[C@H](O)[C@@H](O)[C@H](O)[C@H](O)CO)NC(=O)CC[C@H](NC(=O)c4ccc(NCc5cnc6nc(N)[nH]c(=O)c6n5)cc4)C(=O)O)C(=O)O)C3=O)C(C)C)cc2)N(C(=O)c2cc(OC)c(OCCCCCOc3ccc(-c4nc5ccc(-c6nc7cc(N8CCN(C)CC8)ccc7[nH]6)cc5[nH]4)cc3)cc2N)C1 (stereo partly shown) [EC2080]	0.2 nM	–
C=C1C[C@@H](C2OCCN2C(=O)OCCSSC[C@@H](NC(=O)[C@H](CCC(=O)NC[C@H](O)[C@@H](O)[C@H](O)[C@H](O)CO)NC(=O)[C@@H](CCC(=O)O)NC(=O)[C@H](CCC(=O)NC[C@H](O)[C@@H](O)[C@H](O)[C@H](O)CO)NC(=O)[C@@H](CCC(=O)O)NC(=O)[C@H](CCC(=O)NC[C@H](O)[C@@H](O)[C@H](O)[C@H](O)CO)NC(=O)CC[C@H](NC(=O)c2ccc(NCc3cnc4nc(N)[nH]c(=O)c4n3)cc2)C(=O)O)C(=O)O)N(C(=O)c2cc(OC)c(OCCCCCOc3cc(N)c(C(=O)N4CC(=C)C[C@H]4C4OCCN4C(=O)OCC4c5ccccc5-c5ccccc54)cc3OC)cc2N)C1 (stereo partly shown) [EC1884]	0.36 nM	toxicity as evidenced by test animal total body weight ([2]; 2 μmol/kg TIW for two weeks): Toxicity was not observed
C=C1C[C@H]2C(=O)Nc3cc(OCCCCCOc4cc(N)c(C(=O)N5CC(=C)C[C@H]5C5OCCN5C(=O)OCc5ccc(NC(=O)[C@H](C)NC(=O)[C@@H](NC(=O)CCOCCOCCOCCOCCNC(=O)CCN6C(=O)CC(SC[C@@H](NC(=O)[C@H](CCC(=O)NC[C@H](O)[C@@H](O)[C@H](O)[C@H](O)CO)NC(=O)[C@@H](CCC(=O)O)NC(=O)[C@H](CCC(=O)NC[C@H](O)[C@@H](O)[C@H](O)[C@H](O)CO)NC(=O)[C@@H](CCC(=O)O)NC(=O)[C@H](CCC(=O)NC[C@H](O)[C@@H](O)[C@H](O)[C@H](O)CO)NC(=O)CC[C@H](NC(=O)c7ccc(NCc8cnc9nc(N)[nH]c(=O)c9n8)cc7)C(=O)O)C(=O)O)C6=O)C(C)C)cc5)cc4OC)c(OC)cc3C(=O)N2C1 (stereo partly shown) [EC2074]	3.6 nM	–
C=C1C[C@@H](C2OCCN2C(=O)OCCSSC[C@@H](NC(=O)[C@H](CCC(=O)NC[C@H](O)[C@@H](O)[C@H](O)[C@H](O)CO)NC(=O)[C@@H](CCC(=O)O)NC(=O)[C@H](CCC(=O)NC[C@H](O)[C@@H](O)[C@H](O)[C@H](O)CO)NC(=O)[C@@H](CCC(=O)O)NC(=O)[C@H](CCC(=O)NC[C@H](O)[C@@H](O)[C@H](O)[C@H](O)CO)NC(=O)CC[C@H](NC(=O)c2ccc(NCc3cnc4nc(N)[nH]c(=O)c4n3)cc2)C(=O)O)C(=O)O)N(C(=O)c2cc(OC)c(OCCCCCOc3cc(N)c(C(=O)N4CC(=C)C[C@H]4C4OCCN4C(=O)OCCSSc4ccccn4)cc3OC)cc2N)C1 (stereo partly shown) [EC1949]	1.49 nM	–
C=C1C[C@@H](C2OCCN2C(=O)OCCSSC[C@@H](NC(=O)[C@H](CCC(=O)NC[C@H](O)[C@@H](O)[C@H](O)[C@H](O)CO)NC(=O)[C@@H](CCC(=O)O)NC(=O)[C@H](CCC(=O)NC[C@H](O)[C@@H](O)[C@H](O)[C@H](O)CO)NC(=O)[C@@H](CCC(=O)O)NC(=O)[C@H](CCC(=O)NC[C@H](O)[C@@H](O)[C@H](O)[C@H](O)CO)NC(=O)CC[C@H](NC(=O)c2ccc(NCc3cnc4nc(N)[nH]c(=O)c4n3)cc2)C(=O)O)C(=O)O)N(C(=O)c2cc(OC)c(OCCCCCOc3ccc(-c4nc5ccc(-c6nc7cc(N8CCN(C)CC8)ccc7[nH]6)cc5[nH]4)cc3)cc2N)C1 (stereo partly shown) [EC1879]	0.56 nM	toxicity as evidenced by test animal total body weight ([2]; 2 μmol/kg TIW for 1 week): Minor toxicity was observed; toxicity as evidenced by test animal total body weight ([2]; 2 μmol/kg TIW for two weeks): Toxicity was not observed
COc1ccc(C2=CN(C(=O)c3cc(OC)c(OC)cc3N)[C@H](C3OCCN3C(=O)OCCSSc3ccccn3)C2)cc1 (stereo partly shown) [EC1628]	–	IC50 [1, 3]: 383 nM; IC50 [1, 4]: 11 nM
C=C1C[C@@H](C2OCCN2C(=O)OCc2ccc(SSC[C@H](NC(=O)[C@H](CC(=O)O)NC(=O)[C@H](CC(=O)O)NC(=O)[C@H](CCCNC(=N)N)NC(=O)[C@H](CC(=O)O)NC(=O)CC[C@H](NC(=O)c3ccc(NCc4cnc5nc(N)[nH]c(=O)c5n4)cc3)C(=O)O)C(=O)O)cc2)N(C(=O)c2cc(OC)c(OCCCCCOc3cc(N)c(C(=O)N4CC(=C)C[C@H]4C4OCCN4C(=O)OCc4ccc(SSC[C@H](NC(=O)[C@H](CC(=O)O)NC(=O)[C@H](CC(=O)O)NC(=O)[C@H](CCCNC(=N)N)NC(=O)[C@H](CC(=O)O)NC(=O)CC[C@H](NC(=O)c5ccc(NCc6cnc7nc(N)[nH]c(=O)c7n6)cc5)C(=O)O)C(=O)O)cc4)cc3OC)cc2N)C1 (stereo partly shown) [EC1704]	0.46 nM	–
C=C1C[C@H]2C(=O)Nc3cc(OCCCCCOc4cc(N)c(C(=O)N5CC(=C)C[C@H]5C5OCCN5C(=O)OCCCSC[C@H](NC(=O)[C@H](CC(=O)O)NC(=O)[C@H](CC(=O)O)NC(=O)[C@H](CCCNC(=N)N)NC(=O)[C@H](CC(=O)O)NC(=O)CC[C@H](NC(=O)c5ccc(NCc6cnc7nc(N)[nH]c(=O)c7n6)cc5)C(=O)O)C(=O)O)cc4OC)c(OC)cc3C(=O)N2C1 (stereo partly shown) [EC1772]	0.33 nM	–
C=C1C[C@@H](C2OCCN2C(=O)OCc2ccc(NC(=O)[C@H](C)NC(=O)[C@@H](NC(=O)CCCCCN3C(=O)CC(SC[C@@H](NC(=O)[C@H](CCC(=O)NC[C@H](O)[C@@H](O)[C@H](O)[C@H](O)CO)NC(=O)[C@@H](CCC(=O)O)NC(=O)[C@H](CCC(=O)NC[C@H](O)[C@@H](O)[C@H](O)[C@H](O)CO)NC(=O)[C@@H](CCC(=O)O)NC(=O)[C@H](CCC(=O)NC[C@H](O)[C@@H](O)[C@H](O)[C@H](O)CO)NC(=O)CC[C@H](NC(=O)c4ccc(NCc5cnc6nc(N)[nH]c(=O)c6n5)cc4)C(=O)O)C(=O)O)C3=O)C(C)C)cc2)N(C(=O)c2cc(OC)c(OCCCCCOc3cc(N)c(C(=O)N4CC(=C)C[C@H]4C4OCCN4C(=O)OCC4c5ccccc5-c5ccccc54)cc3OC)cc2N)C1 (stereo partly shown) [EC1911]	0.7 nM	–
C=C1C[C@@H](C2OCCN2C(=O)OCc2ccc(NC(=O)[C@H](C)NC(=O)[C@@H](NC(=O)CCOCCOCCOCCOCCNC(=O)CCN3C(=O)CC(SC[C@@H](NC(=O)[C@H](CCC(=O)NC[C@H](O)[C@@H](O)[C@H](O)[C@H](O)CO)NC(=O)[C@@H](CCC(=O)O)NC(=O)[C@H](CCC(=O)NC[C@H](O)[C@@H](O)[C@H](O)[C@H](O)CO)NC(=O)[C@@H](CCC(=O)O)NC(=O)[C@H](CCC(=O)NC[C@H](O)[C@@H](O)[C@H](O)[C@H](O)CO)NC(=O)CC[C@H](NC(=O)c4ccc(NCc5cnc6nc(N)[nH]c(=O)c6n5)cc4)C(=O)O)C(=O)O)C3=O)C(C)C)cc2)N(C(=O)c2cc(OC)c(OCCCCCOc3cc(N)c(C(=O)N4CC(=C)C[C@H]4C4OCCN4C(=O)OCc4ccc([N+](=O)[O-])cc4)cc3OC)cc2N)C1 (stereo partly shown) [EC2127]	1.34 nM	–
COc1ccc(C2=CN(C(=O)c3cc(OC)c(OC)cc3N)[C@H](C3OCCN3C(=O)OCCSSC[C@H](NC(=O)[C@H](CC(=O)O)NC(=O)[C@H](CC(=O)O)NC(=O)[C@H](CCCNC(=N)N)NC(=O)[C@H](CC(=O)O)NC(=O)CC[C@H](NC(=O)c3ccc(NCc4cnc5nc(N)[nH]c(=O)c5n4)cc3)C(=O)O)C(=O)O)C2)cc1 (stereo partly shown) [EC1629] ({Pteroyl-γGlu}-DRDDC(X1)-OH)	–	toxicity as evidenced by test animal total body weight ([2]; 2 μmol/kg TIW for two weeks): Toxicity was not observed
C=C1C[C@@H](C2OCCN2C(=O)OCC2c3ccccc3-c3ccccc32)N(C(=O)c2cc(OC)c(OCCCCCOc3cc(NC(=O)OCc4ccc(NC(=O)[C@H](C)NC(=O)[C@@H](NC(=O)CCOCCOCCOCCOCCNC(=O)CCN5C(=O)CC(SC[C@@H](NC(=O)[C@H](CCC(=O)NC[C@H](O)[C@@H](O)[C@H](O)[C@H](O)CO)NC(=O)[C@@H](CCC(=O)O)NC(=O)[C@H](CCC(=O)NC[C@H](O)[C@@H](O)[C@H](O)[C@H](O)CO)NC(=O)[C@@H](CCC(=O)O)NC(=O)[C@H](CCC(=O)NC[C@H](O)[C@@H](O)[C@H](O)[C@H](O)CO)NC(=O)CC[C@H](NC(=O)c6ccc(NCc7cnc8nc(N)[nH]c(=O)c8n7)cc6)C(=O)O)C(=O)O)C5=O)C(C)C)cc4)c(C(=O)N4CC(=C)C[C@H]4C4OCCN4C(=O)OCC4c5ccccc5-c5ccccc54)cc3OC)cc2N)C1 (stereo partly shown) [EC2103]	3.5 nM	–
